Patent publication US9636324B2, “Use of 15-benzylidence-14-deoxy-11, 12 -dehyroandrographolide derivative in manufacture of medicaments for protecting liver and anti-hepatitis C virus” (Zhengzhou University, priority 2012, dated 2017)

Assays:
[1] = system: mice with ConA induced liver damage; test: ConA induced immunological liver damage model in mice; format: in vivo, Kunming mice
Experimental: Kunming mice of clean grade (male, weight 20±2 g, supplied by the Laboratory Animal Center, Henan Province) are randomly divided into groups with 6 mice in each group. Bifendate (Xinchang Pharmaceutical Factory of Zhejiang Pharmaceutical Co., Ltd, 200 mg/kg) is used as positive control, andrographolide (AD) is provided by Furen Pharmaceutical Group Co., Ltd, and the test compounds are synthesized by the inventors with purities higher than 99.0%. Normal control group and model group are intragastrically given 0.5% sodium carboxymethylcellulose (CMC-Na), and test groups are given 0.5% CMC-Na suspensions with AD (0.88 mmol/kg), and low dosage (0.66 mmol/kg) and high dosage (0.88 mmol/kg) of compound A, B and C, respectively. The drugs are given for 3 days. One hour after the last administration, all mice except those in the normal control group are injected with a single dose of ConA (20 mg/kg) through the caudal vein. After 8 h, the eyeball is enucleated to collect blood, which is centrifuged at 3000 rpm for 15 min to separate serum. ALT and AST are tested according to the kit specification, respectively (Nanjing Jiancheng Bioengineering Institute). The left lobe of liver is taken to prepare 10% homogenate using physiological saline, MDA is determined according to the kit specification (Nanjing Jiancheng Bioengineering Institute). To 50 μL liver homogenate is added 2 mL of 0.5 mol/L KOH-methanol solution and kept at 50° C. water bath to isomerize for 20 minutes, then absorbance (A value) is measured at 278 nm, using the A value per mL of homogenate to represent the PGE2 content. Experimental data are expressed as average±standard deviation (X±s), analyzed with SPSS 11.5 statistic software, with P<0.05 meaning significant difference.
Kunming mice of clean grade (male, weight 20±2 g) are randomly divided into normal group, model group, bifendate (Zhejiang Wanbang Pharmaceutical Co., Ltd) positive control group (200 mg/kg), AD group (0.88 mmol/kg), low dosage group (0.66 mmol/kg) and high dosage (0.88 mmol/kg) group of compound D. ALT, AST, and MDA assay kits are purchased from Nanjing Jiancheng Bioengineering Institute. Other agents, drugs and experimental methods are the same as in EXAMPLE 1.
In experimental investigation of both models, the following grouping method is used: Kunming mice of clean grade (male, weight 20±2 g) are randomly divided into normal group, model group, bifendate group (200 mg/kg), AD group (0.88 mmol/kg), low dosage group (0.66 mmol/kg) and high dosage group (0.88 mmol/kg) of compound E, with 8 mice in each group. Other agents, drugs and experimental methods are the same as in EXAMPLE 1 and in EXAMPLE 4, respectively.

[2] = system: mice with carbon tetrachloride induced liver damage; test: Carbon tetrachloride induced chemical liver damage model in mice; format: in vivo, Kunming mice
Experimental: Kunming mice of clean grade (male, weight 20±2 g), after adaptively fed for 3 days, are randomly divided into normal group, model group, bifendate positive control group (200 mg/kg), AD group (0.88 mmol/kg), low dosage group (0.66 mmol/kg) and high dosage group (0.88 mmol/kg) of compound A, B, C and D, with 8 mice in each group. Positive group and each test group are intragastrically given with respective suspension prepared with 0.5% CMC-Na, and normal group and model group are given with 0.5% CMC-Na. The drugs are given for 3 days, and 1 h after the last administration, all mice except those in the normal group are intraperitoneally injected with a single dose of 0.3% carbon tetrachloride in peanut oil (0.1 mL/10 g). After 16 h, the eyeball of the mice in each group is enucleated to collect blood, which is centrifuged at 3000 rpm for 15 min to separate serum. ALT and AST activities are tested respectively (Nanjing Jiancheng Bioengineering Institute). The left lobe of liver is taken to prepare 10% homogenate using physiological saline, MDA (Nanjing Jiancheng Bioengineering Institute) and PGE2 contents are determined. Experimental data are expressed as average±standard deviation (X±s), analyzed with SPSS 11.5 statistic software, with P<0.05 meaning there is a significant difference. Other agents, drugs and experimental methods are the same as in EXAMPLE 1. In experimental investigation of both models, the following grouping method is used: Kunming mice of clean grade (male, weight 20±2 g) are randomly divided into normal group, model group, bifendate group (200 mg/kg), AD group (0.88 mmol/kg), low dosage group (0.66 mmol/kg) and high dosage group (0.88 mmol/kg) of compound E, with 8 mice in each group. Other agents, drugs and experimental methods are the same as in EXAMPLE 1 and in EXAMPLE 4, respectively.

MDBK (NBL-1) cells = test: MTT assay for cytotoxicity; format: cell-based, bovine; details: 0-7.5 μmol/L, 48 h
Experimental: The drug-containing medium is added and further incubated for 48 h. MTT is added (5 mg/mL) at 20 μL/well and cultured for 4 h, the supernatant is discarded and 150 μL DMSO is added, then the plate is shaken for 10 minutes and the absorbance is determined using a microplate reader using the wavelength 570 nm and a reference wavelength 450 nm. The cell survival rate is calculated after treatment of compounds: cell survival rate (%)=drug group A value/cell control group A value×100%, and the results are shown in FIG. 10. Cell proliferation inhibition rate (%)=100%−survival rate (%), half maximal (50%) toxic concentration (TC50) is calculated according to Reed-Muench method.

[3] = high dosage 0.88 mmol/kg vs AD 0.88 mmol/kg, P<0.05
[4] = low dosage (printed 0.66 mol/kg), P<0.01
[5] = dosage groups not distinguished (0.66 and 0.88 mmol/kg), P<0.01
[6] = dosage groups not distinguished, P<0.01
[7] = high dosage 0.88 mmol/kg, P<0.05
[8] = low dosage 0.66 mmol/kg vs AD 0.88 mmol/kg, P<0.05

C=C1CCC2C(C)(CO)C(O)CCC2(C)C1C=CC1=CC(=Cc2ccc(Cl)cc2)OC1=O (stereo not drawn) [Compound A]
liver histopathologic section (HE staining) ([1]; HE stain, 200x, FIG. 5): no observation of extravasated blood in sinus hepaticus, liver cells show slightly granular degeneration and vacuolar degeneration, and no spotted and focal necrosis region is observed | serum enzyme level relative to normal level ([1]; high dosage 0.88 mmol/kg): essentially decreased to normal level | enzyme (ALT, AST) lowering effect compared to AD group [1, 3]: better enzyme lowering effect | PGE2 content in liver homogenate vs model group ([1]; high dosage 0.88 mmol/kg, P<0.01): notably reduce PGE2 content | PGE2 content in liver homogenate vs model group ([1]; low dosage 0.66 mmol/kg, P<0.05 (A), P<0.01 (D)): notably reduce PGE2 content | MDA content in liver homogenate vs model group [1, 4]: more obvious effect | ability against liver lipid peroxidation compared with AD group [1, 4]: stronger resistant ability against liver lipid peroxidation | protective effect against liver damage induced by ConA (summary) ([1]; mice, intragastric, 3 days): notably protective effect | ALT activity in serum vs model group [2, 5]: notably suppress the increase | AST activity in serum vs model group [2, 5]: notably suppress the increase | MDA level in liver homogenate vs model group [2, 6]: effectively reduce | PGE2 level in liver homogenate vs model group [2, 6]: effectively reduce | magnitude of decrease in ALT activity compared to AD group [2, 3]: significantly better | magnitude of decrease in AST activity compared to AD group [2, 3]: significantly better | PGE2 content compared to AD group [2, 7]: notably lower | ability to reduce lipid peroxide level in liver homogenate compared to AD group [2, 7]: stronger ability to reduce the lipid peroxide level | magnitude of decrease in ALT activity compared to AD group [2, 8]: significantly better | magnitude of decrease in AST activity compared to AD group [2, 8]: significantly better | ability to reduce lipid peroxide level in liver homogenate compared to AD group ([2]; low dosage 0.66 mmol/kg, P<0.05): stronger ability to reduce the lipid peroxide level | protective effect against liver damage induced by carbon tetrachloride (summary) ([2]; mice, intragastric, 3 days): protective effect | cytotoxicity to MDBK cells (MDBK (NBL-1) cells): do not show obvious cytotoxcity
